The source of these data is US20230165872A1, “COMBINATION OF BCMA-DIRECTED T CELL THERAPY AND AN IMMUNOMODULATORY COMPOUND” (Juno Therapeutics, Inc., priority 2020, published 2023).

The subject of test [1] is Aiolos and Ikaros. As to conditions: compared with lenalidomide and pomalidomide; cited from earlier work.
Test [2] deals with anti-BCMA CAR T cells. In words: Viability and count of anti-BCMA CAR T cells after 7-day chronic stimulation with BCMA-conjugated beads. It counts as cell-based, human. The protocol:
Cryofrozen anti-BCMA CAR T cells, produced substantially as described in Example 1 and formulated at a 1:1 ratio of CD4+ and CD8^+ T cells, were thawed. To subject cells to chronic stimulation conditions, the anti-BCMA CAR+ T cells were stimulated with 50 μg BCMA conjugated beads (diameter about 4.5 μm from a 50 μg/ml BCMA-conjugated bead composition, generated as described in Example 2) at a ratio of T cells to beads of 1:1 in the presence or absence of Compound A (iberdomide, (S)-3-[4-(4-morpholin-4-ylmethyl-benzyloxy)-1-oxo-1,3-dihydro-isoindol-2-yl]-piperidine-2,6-dione) (1 nM or 10 nM), Compound B ((S)-4-(4-(4-(((2-(2,6-dioxopiperidin-3-yl)-1-oxoisoindolin-4-yl)oxy)methyl)benzyl)piperazin-1-yl)-3-fluorobenzonitrile) (0.1 nM or 1 nM), or DMSO vehicle control. The cells were then incubated at 37° C., 5% CO2 for 7 days.
At day 7, anti-BCMA CAR cells of all the samples were counted using a cellometer machine and stained for flow cytometric analysis. Cells were stained with a viability dye and analyzed by flow cytometry. Viability and count of anti-BCMA CAR T cells was increased in the presence of Compound A or Compound B.
Cryofrozen anti-BCMA CAR T cells, produced substantially as described in Example 1 and formulated at a 1:1 ratio of CD4+ and CD8+ T cells, were thawed. […] The cells were then incubated at 37° C., 5% CO2 for 7 days.
At day 7, anti-BCMA CAR cells of all the samples were counted using a cellometer machine and stained for flow cytometric analysis. Cells were stained with a viability dye and analyzed by flow cytometry.

The test system of test [3] is OPM2 target cells. Briefly: Acute co-culture cytokine secretion of anti-BCMA CAR T cells with OPM2. Type of test: cell-based, human. Conditions: OPM2, E:T 1:1, 24 hours, 0.01-10,000 nM, FIG. 2B. The protocol: Anti-tumor effects of anti-BCMA CAR T cells, alone and in combination with cell immunomodulatory compounds Compound A (iberdomide, (S)-3-[4-(4-morpholin-4-ylmethyl-benzyloxy)-1-oxo-1,3-dihydro-isoindol-2-yl]-piperidine-2,6-dione) or Compound B ((S)-4-(4-(4-(((2-(2,6-dioxopiperidin-3-yl)-1-oxoisoindolin-4-yl)oxy)methyl)benzyl)piperazin-1-yl)-3-fluorobenzonitrile), were assessed in two different BCMA-expressing target multiple myeloma cell lines RPMI-8226 or OPM-2. Anti-BCMA CAR+ T cells were generated as described in Example 1.
The anti-BCMA CAR-expressing T cells were incubated with target cells, RPMI 8226 (BCMA^med human multiple myeloma cell line) or OPM2 cells (BCMA^med human multiple myeloma cell line) target cells, at an E:T ratio of 1:1. The co-culture incubation with target cells was carried out in the presence of Compound A (0.01 nM, 0.1 nM, 1 nM, 10 nM, 100 nM, 1000 nM, or 10,000 nM) or Compound B (0.01 nM, 0.1 nM, 1 nM, 10 nM, 100 nM, 1000 nM, or 10,000 nM).
Cytokine secretion of IL-2, TNFα and IFN-gamma cytokines from cell culture supernatant of the co-cultures after 24 hours of incubation with targets cells was determined. Co-culture of anti-BCMA CAR+ T cells with Compound A enhanced the CAR T cytokine production both against RPMI-8226 target cells (FIG. 2A) and OPM2 target cells (FIG. 2B).

The test system of test [4] is IMiD/CELMoD resistant cell line DF-15R. In words: Rescue: rechallenge of chronically stimulated anti-BCMA CAR T cells with DF-15R. As to conditions: DF-15R rechallenge after 7-day chronic stimulation. Type of test: cell-based, human. The protocol: Studies were undertaken to determine whether Compound A (iberdomide, (S)-3-[4-(4-morpholin-4-ylmethyl-benzyloxy)-1-oxo-1,3-dihydro-isoindol-2-yl]-piperidine-2,6-dione) rescued anti-BCMA CAR T cell function following chronic stimulation. To directly stimulate via CAR engagement to induce chronic stimulation of cells, anti-BCMA CAR T cells were stimulated with BCMA conjugated beads (diameter about 4.5 μm from a 50 μg/ml BCMA-conjugated bead composition, generated as described in Example 9) at a ratio of T cells to beads of 1:1. The cells were then incubated at 37° C., 5% CO2 for 7 days.
To further elucidate the role of Compound A on the target cells compared to the CAR T cell intrinsic effects, the IMiD/CELMoD resistant cell line DF-15R was also used to rechallenge anti-BCMA CAR T cells that had been chronically stimulated for 7 days. Cytolytic activity and cytokine production following the rechallenge were assessed as described above.

The test system of test [5] is Aiolos. In words: Intracellular Aiolos expression in BCMA-bead stimulated anti-BCMA CAR T cells (flow cytometry, MFI). It counts as cell-based, human. As to conditions: CD4+CAR+ or CD8+CAR+ cells; 24 or 72 hours; lenalidomide 1000 nM, Compound A 1, 10, 100 nM, Compound B 0.1, 1, 10 nM. The protocol:
A BCMA-Fc fusion protein containing the extracellular domain of human BCMA and a human IgG1Fc was conjugated to beads by covalently coupling to the surface of commercially available tosyl-activated magnetic beads having a diameter of approximately […] (M-450 beads, ThermoFisher, Waltham Mass.) (see e.g. International published PCT App. No. WO2019/027850). Following incubation, anti-BCMA CAR-expressing T cells were stained with antibodies and analyzed by flow cytometry to assess intracellular levels of Ikaros and Aiolos in CD4+CAR+ or CD8+CAR+ cells, as measured by median fluorescence intensity (MFI). Median fluorescence intensity (MFI) values for Ikaros and Aiolos were normalized and calculated as a percentage relative to vehicle control.
Background: In flow cytometry, cells or beads pass a laser one at a time.

Test [6] has as its system lymphoma cells. Conditions: cited from earlier work.
Setting [7] is: Example 3: day 7, Compound A 1 or 10 nM, Compound B 0.1 or 1 nM.
[8] abbreviates: Example 7: day 7, lenalidomide 1000 nM, Compound A 0.1, 1 or 10 nM, FIG. 8.

As for `O=C1CC[C@H](N2Cc3c(OCc4ccc(CN5CCOCC5)cc4)cccc3C2=O)C(=O)N1` [Compound A, (S)-3-[4-(4-morpholin-4-ylmethyl-benzyloxy)-1-oxo-1,3-dihydro-isoindol-2-yl]-piperidine-2,6-dione], the “efficiency of degrading Aiolos and Ikaros” value in test [1] was “more efficient at degrading Aiolos and Ikaros than lenalidomide and pomalidomide”. In test [2] (setting [7]), the “count of anti-BCMA CAR T cells” value is “increased” and the “viability of anti-BCMA CAR T cells” value was “increased”. In addition, in test [2] (setting [8]), the “count of anti-BCMA CAR T cells” value was “increased” and the “viability of anti-BCMA CAR T cells” value is “increased”. Besides, the “CAR T cytokine production (IL-2, TNFα, IFN-gamma in supernatant)” value in test [3] was “enhanced”. In addition, in test [4] (Compound A 1 or 10 nM, FIG. 11A), the cytolytic activity entry was “increased cytolytic activity”. The “cytokine production (IFN-gamma, IL-2, TNF-alpha)” value in test [4] (FIG. 11B-D) is “increased”. Further, in test [5], the “intracellular Aiolos expression (MFI, percentage relative to vehicle control)” value is given as “concentration dependent decrease”. Further, the “direct anti-proliferative effects on lymphoma cells” value in test [6] is given as “potent direct anti-proliferative effects”.
